# Measurements published in patent US10040781B2, “Tank-binding kinase inhibitor compounds” (Gilead Sciences, Inc., priority 2014, dated 2018).
# Where two headings read alike, the source gives them in different places.
# Legend:
# [1] = molecular target: IKKε (Homo sapiens (Human), UniProt Q14164); test: IKKε TR-FRET enzymatic assay; assay type: biochemical; conditions: read-out: IKKe IC50
# [2] = molecular target: TBK1 (Homo sapiens (Human), UniProt Q9UHD2); test: TBK1 TR-FRET enzymatic assay;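 note: phosphorylation of a biotinylated Ser/Thr peptide by purified full-length recombinant TBK1, read by TR-FRET after 240 min at 25 °C, IC50 is the geometric mean of at least four runs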
# [3] = molecular target: hJAK2 (Homo sapiens (Human), UniProt O60674); test: hJAK2 LANCE TR-FRET enzymatic assay; assay type: biochemical; conditions: read-out: JAK2 IC50
# [4] = TR-FRET, 2×Km ATP, geometric mean of minimum four determinations
# Sequence of hJAK2 (O60674 whole entry): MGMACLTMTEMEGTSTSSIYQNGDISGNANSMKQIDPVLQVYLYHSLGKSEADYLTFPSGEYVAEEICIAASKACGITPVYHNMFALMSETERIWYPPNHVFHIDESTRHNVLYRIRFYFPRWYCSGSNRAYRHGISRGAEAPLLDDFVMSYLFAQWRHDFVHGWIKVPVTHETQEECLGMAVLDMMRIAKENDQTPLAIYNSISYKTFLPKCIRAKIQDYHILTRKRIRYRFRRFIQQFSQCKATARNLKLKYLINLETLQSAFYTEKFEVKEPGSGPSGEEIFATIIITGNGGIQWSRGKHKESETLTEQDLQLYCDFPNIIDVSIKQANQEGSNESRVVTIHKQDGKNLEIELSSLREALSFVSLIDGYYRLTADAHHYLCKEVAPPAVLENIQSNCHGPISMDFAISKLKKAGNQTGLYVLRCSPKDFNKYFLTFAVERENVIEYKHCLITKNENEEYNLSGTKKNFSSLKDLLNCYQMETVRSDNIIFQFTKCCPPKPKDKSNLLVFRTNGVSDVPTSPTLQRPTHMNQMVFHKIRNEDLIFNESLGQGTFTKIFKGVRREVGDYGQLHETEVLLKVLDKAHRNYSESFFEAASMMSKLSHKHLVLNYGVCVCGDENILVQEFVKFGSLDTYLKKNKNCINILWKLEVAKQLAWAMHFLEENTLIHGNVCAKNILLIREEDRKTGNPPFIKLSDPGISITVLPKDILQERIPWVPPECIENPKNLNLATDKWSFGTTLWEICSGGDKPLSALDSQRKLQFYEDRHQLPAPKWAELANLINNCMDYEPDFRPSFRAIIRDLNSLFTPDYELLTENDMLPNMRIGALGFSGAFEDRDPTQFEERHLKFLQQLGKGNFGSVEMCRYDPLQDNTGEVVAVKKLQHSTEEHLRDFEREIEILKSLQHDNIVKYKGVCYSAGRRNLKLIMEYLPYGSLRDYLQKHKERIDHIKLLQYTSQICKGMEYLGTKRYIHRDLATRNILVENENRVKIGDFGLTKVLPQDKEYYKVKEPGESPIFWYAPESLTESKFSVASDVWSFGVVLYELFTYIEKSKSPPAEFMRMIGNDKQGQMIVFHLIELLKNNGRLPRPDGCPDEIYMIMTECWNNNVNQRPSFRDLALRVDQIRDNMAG
# Sequence of IKKε (Q14164 whole entry): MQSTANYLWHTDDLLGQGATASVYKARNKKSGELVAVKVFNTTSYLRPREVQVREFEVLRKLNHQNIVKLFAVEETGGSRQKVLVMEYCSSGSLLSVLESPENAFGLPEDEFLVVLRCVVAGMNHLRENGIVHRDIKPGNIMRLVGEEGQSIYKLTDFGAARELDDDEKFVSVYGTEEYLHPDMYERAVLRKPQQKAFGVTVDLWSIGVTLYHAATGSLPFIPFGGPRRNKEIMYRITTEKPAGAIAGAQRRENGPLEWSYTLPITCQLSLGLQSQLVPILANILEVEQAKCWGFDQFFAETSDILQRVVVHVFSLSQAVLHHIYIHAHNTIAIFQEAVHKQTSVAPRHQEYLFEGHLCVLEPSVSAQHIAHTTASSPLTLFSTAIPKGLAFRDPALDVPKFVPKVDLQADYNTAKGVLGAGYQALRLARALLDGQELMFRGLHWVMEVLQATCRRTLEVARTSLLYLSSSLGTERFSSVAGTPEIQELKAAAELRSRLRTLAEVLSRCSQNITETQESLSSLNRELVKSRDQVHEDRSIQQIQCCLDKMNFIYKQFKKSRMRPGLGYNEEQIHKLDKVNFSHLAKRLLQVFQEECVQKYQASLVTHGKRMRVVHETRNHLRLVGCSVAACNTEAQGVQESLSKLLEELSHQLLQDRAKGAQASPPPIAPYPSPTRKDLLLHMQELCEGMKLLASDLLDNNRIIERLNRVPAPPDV
# Sequence of TBK1 (Q9UHD2 whole entry): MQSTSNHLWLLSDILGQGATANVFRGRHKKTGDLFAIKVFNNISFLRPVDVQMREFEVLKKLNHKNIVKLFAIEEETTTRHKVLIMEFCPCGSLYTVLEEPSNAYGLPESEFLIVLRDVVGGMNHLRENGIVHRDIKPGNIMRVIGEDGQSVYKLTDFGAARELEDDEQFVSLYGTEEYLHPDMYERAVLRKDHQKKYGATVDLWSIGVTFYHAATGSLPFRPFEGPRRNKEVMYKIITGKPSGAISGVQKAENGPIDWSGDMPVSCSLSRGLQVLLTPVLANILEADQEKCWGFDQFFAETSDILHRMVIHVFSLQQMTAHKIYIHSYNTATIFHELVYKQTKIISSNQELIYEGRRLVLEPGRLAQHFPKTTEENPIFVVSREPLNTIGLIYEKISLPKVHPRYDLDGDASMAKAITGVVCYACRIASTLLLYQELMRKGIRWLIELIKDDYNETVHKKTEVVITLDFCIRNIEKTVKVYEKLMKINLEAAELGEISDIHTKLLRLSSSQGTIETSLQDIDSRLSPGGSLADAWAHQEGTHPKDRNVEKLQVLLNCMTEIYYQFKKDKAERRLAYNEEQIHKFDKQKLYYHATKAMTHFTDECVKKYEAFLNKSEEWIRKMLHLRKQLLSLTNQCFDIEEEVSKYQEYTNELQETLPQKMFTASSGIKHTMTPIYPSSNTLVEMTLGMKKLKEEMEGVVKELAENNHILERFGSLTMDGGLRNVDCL
SMILES,IC50 [1] [nM],IC50 [2] [nM],IC50 [3] [nM],"IC50 [1, 4] [nM]"
"CC(=O)N1CC[C@@H](Oc2ccc(-c3ncnc(Nc4ccc(N5CCN(C6COC6)CC5)cc4)n3)cc2C#N)C1 [Example 3, (R)-2-((1-acetylpyrrolidin-3-yl)oxy)-5-(4-((4-(4-(oxetan-3-yl)piperazin-1-yl)phenyl)amino)-1,3,5-triazin-2-yl)benzonitrile]",99,20,724,–
"N#Cc1cc(-c2ncnc(Nc3ccc(N4CCN(C5COC5)CC4)cc3)n2)ccc1O[C@@H]1CCN(C(=O)c2nc(=O)[nH][nH]2)C1 [Example 435, (R)-5-(4-((4-(4-(oxetan-3-yl)piperazin-1-yl)phenyl)amino)-1,3,5-triazin-2-yl)-2-((1-(5-oxo-2,5-dihydro-1H-1,2,4-triazole-3-carbonyl)pyrrolidin-3-yl)oxy)benzonitrile]",–,411,≥ 1000,292
"N#Cc1cc(-c2ncnc(Nc3ccc(N4CCN(C5COC5)CC4)cc3)n2)ccc1O[C@H]1CCN(C(=O)c2cn[nH]c2Cl)C[C@H]1F [Example 136, 2-(((3R,4S)-1-(5-chloro-1H-pyrazole-4-carbonyl)-3-fluoropiperidin-4-yl)oxy)-5-(4-((4-(4-(oxetan-3-yl)piperazin-1-yl)phenyl)amino)-1,3,5-triazin-2-yl)benzonitrile]",73,46,167,–
"COc1cc(Nc2ncnc(-c3ccc(N4C[C@H](O)CCC4=O)c(C#N)c3)n2)ccc1N1CCN(C2COC2)CC1 [Example 399, (R)-2-(5-hydroxy-2-oxopiperidin-1-yl)-5-(4-((3-methoxy-4-(4-(oxetan-3-yl)piperazin-1-yl)phenyl)amino)-1,3,5-triazin-2-yl)benzonitrile]",–,152,174,270

# Now those with a lower IC50 [2], led by results:
IC50 [1] [nM],IC50 [2] [nM],IC50 [3] [nM],"IC50 [1, 4] [nM]",SMILES
1,2,270,–,"C[C@H]1CN(C2COC2)CCN1c1ccc(Nc2ncnc(-c3ccc(O[C@H]4CCN(C(=O)c5ccn[nH]5)C[C@H]4F)c(C#N)c3)n2)cc1 [Example 257, 2-(((3R,4S)-3-fluoro-1-(1H-pyrazole-5-carbonyl)piperidin-4-yl)oxy)-5-(4-((4-((S)-2-methyl-4-(oxetan-3-yl)piperazin-1-yl)phenyl)amino)-1,3,5-triazin-2-yl)benzonitrile]"
–,2,131,1,"C[C@H](O)C(=O)N1CC[C@H](Oc2ccc(-c3ncnc(Nc4ccc(N5CCO[C@@H](CO)C5)cc4)n3)cc2C#N)C(F)(F)C1 [Example 460, 2-(((S)-3,3-difluoro-1-((S)-2-hydroxypropanoyl)piperidin-4-yl)oxy)-5-(4-((4-((R)-2-(hydroxymethyl)morpholino)phenyl)amino)-1,3,5-triazin-2-yl)benzonitrile]"
1,2,146,–,"N#Cc1cc(-c2ncnc(Nc3ccc(N4CCN(C5COC5)CC4)cc3)n2)ccc1O[C@H]1CCN(C(=O)[C@@H]2CCC(=O)N2)CC1(F)F [Example 116, 2-(((S)-3,3-difluoro-1-((S)-5-oxopyrrolidine-2-carbonyl)piperidin-4-yl)oxy)-5-(4-((4-(4-(oxetan-3-yl)piperazin-1-yl)phenyl)amino)-1,3,5-triazin-2-yl)benzonitrile]"
